This series in a line: Assay (IV) determination of solubility. It counts as physicochemical. How it is done: ASSAY (IV)—Determination of Solubility
The polypeptide was dissolved in water at ˜500 nmol/ml and mixed 1:1 with a series of buffers (100 mM glycylglycine pH 3.0, 100 mM glycylglycine pH 4.0, 100 mM glycylglycine pH 5.0, 100 mM bistrispropane pH 6.0, 100 mM bistrispropane pH 6.5, 100 mM bistrispropane pH 7.0, 100 mM bistrispropane pH 7.5, 100 mM bistrispropane pH 8.0). After 18 hours at room temperature the samples were centrifuged and the polypeptide concentration determined by HPLC.

The mark [1] stands for this setting: pH 3, pH 3.0, read-out: Solubility pH 3.0.
The mark [2] stands for this setting: pH 4, pH 4.0, 18 hours at room temperature, Table 2, read-out: Solubility pH 4.0.
The mark [3] stands for this setting: pH 4, pH 4.0, read-out: Solubility pH 4.0.
[4] abbreviates: pH 5, pH 5.0, read-out: Solubility pH 5.0.
The mark [5] stands for this setting: pH 6, pH 6.0, read-out: Solubility pH 6.0.
[6] abbreviates: pH 6.5, pH 6.5, read-out: Solubility pH 6.5.
The mark [7] stands for this setting: pH 7, pH 7.0, 18 hours at room temperature, Table 3, read-out: Solubility pH 7.0.
Where [8] appears, read: pH 7, pH 7.0, read-out: Solubility pH 7.0.
[9] abbreviates: pH 7.5, pH 7.5, read-out: Solubility pH 7.5.
Setting [10] is: pH 8, pH 8.0, read-out: Solubility pH 8.0.

SMILES strings stand for the structures. Values after ≈ are worked out from the molar mass of the structure shown. Like-named read-outs stand apart in the source and are kept apart here. Starred links: 1 amine or outer side, 2 acyl side, 3 side chain; linkers in the order of their positions; H or OH if unused. Positions of bridges follow the written chain, without caps; N, C: chain ends. Residues, ends and D or L forms follow the SMILES beside them. Groups on a side chain read outwards from the residue. *: point of attachment. C20 diacid = O=C(O)CCCCCCCCCCCCCCCCCCC(=O)*; γGlu = O=C(O)[C@H](CCC(=O)[*:2])N[*:1]; AEEA = NCCOCCOCC(=O)O Bounds are passed on as bounds.

Take `CC[C@H](C)[C@H](NC(=O)[C@@H]1CCCN1C(=O)CNC(=O)[C@H](Cc1ccccc1)NC(=O)[C@H](CC(N)=O)NC(=O)[C@H](C)NC(=O)[C@H](CO)NC(=O)[C@H](CO)NC(=O)[C@H](Cc1c[nH]cn1)NC(=O)[C@@H](NC(=O)[C@H](CC(C)C)NC(=O)[C@H](Cc1ccccc1)NC(=O)[C@H](CCC(=O)O)NC(=O)[C@H](C)NC(=O)[C@H](CC(C)C)NC(=O)[C@H](CCCNC(=N)N)NC(=O)[C@H](CCC(N)=O)NC(=O)[C@@H](NC(=O)[C@H](C)NC(=O)[C@@H]1CSSC[C@H](NC(=O)[C@H](CCCCN)NC(=O)COCCOCCNC(=O)COCCOCCNC(=O)CC[C@H](NC(=O)CCCCCCCCCCCCCCCCCCC(=O)O)C(=O)O)C(=O)N[C@@H](CC(N)=O)C(=O)N[C@@H]([C@@H](C)O)C(=O)N[C@@H](C)C(=O)N[C@@H]([C@@H](C)O)C(=O)N1)[C@@H](C)O)C(C)C)C(=O)N[C@@H](CC(C)C)C(=O)N1CCC[C@H]1C(=O)N1CCC[C@H]1C(=O)N[C@H](C(=O)N[C@@H](CC(N)=O)C(=O)N[C@H](C(=O)NCC(=O)N[C@@H](CO)C(=O)N[C@@H](Cc1c[nH]cn1)C(=O)N[C@H](C(=O)N1CCC[C@H]1C(N)=O)[C@@H](C)O)C(C)C)[C@@H](C)O` [Example 178, N-alpha-[2-(2-{2-[2-(2-{2-[(S)-4-Carboxy-4-(19-carboxyheptadecanoylamino)butyrylamino]ethoxy}ethoxy)acetylamino]ethoxy}ethoxy)acetyl]-[Glu14,Ala21,His35,Pro37]-pramlintide] ({C20 diacid-γGlu-AEEA-AEEA}-KCNTATCATQRLAEFLVHSSANFGPILPPTNVGSHTP-NH2; disulfide 2-7): the solubility was more than 200 µM under setting [1]; more than 200 µM under setting [2]; more than 200 µM under setting [3]; more than 200 µM under setting [4]; more than 200 µM under setting [5]; more than 200 µM under setting [6]. Moreover, the solubility was more than 200 µM under setting [7], more than 200 µM under setting [8], more than 200 µM under setting [9] and more than 200 µM under setting [10].

As to `CC[C@H](C)[C@H](NC(=O)[C@@H]1CCCN1C(=O)CNC(=O)[C@H](Cc1ccccc1)NC(=O)[C@H](CC(N)=O)NC(=O)[C@H](CCCCNC(=O)COCCOCCNC(=O)COCCOCCNC(=O)CC[C@H](NC(=O)CCCCCCCCCCCCCCCCCCC(=O)O)C(=O)O)NC(=O)[C@H](CO)NC(=O)[C@H](CO)NC(=O)[C@H](Cc1c[nH]cn1)NC(=O)[C@@H](NC(=O)[C@H](CC(C)C)NC(=O)[C@H](Cc1ccccc1)NC(=O)[C@H](CCC(=O)O)NC(=O)[C@H](C)NC(=O)[C@H](CC(C)C)NC(=O)[C@H](CCCNC(=N)N)NC(=O)[C@H](CCC(N)=O)NC(=O)[C@@H](NC(=O)[C@H](C)NC(=O)[C@@H]1CSSC[C@H](NC(=O)[C@@H](N)CCCCN)C(=O)N[C@@H](CC(N)=O)C(=O)N[C@@H]([C@@H](C)O)C(=O)N[C@@H](C)C(=O)N[C@@H]([C@@H](C)O)C(=O)N1)[C@@H](C)O)C(C)C)C(=O)N[C@@H](CC(C)C)C(=O)N1CCC[C@H]1C(=O)N1CCC[C@H]1C(=O)N[C@H](C(=O)N[C@@H](CC(N)=O)C(=O)N[C@H](C(=O)NCC(=O)N[C@@H](CO)C(=O)N[C@@H](Cc1c[nH]cn1)C(=O)N[C@H](C(=O)N[C@@H](Cc1ccc(O)cc1)C(N)=O)[C@@H](C)O)C(C)C)[C@@H](C)O` [Example 132, N-epsilon21-[2-(2-{2-[2-(2-{2-[(S)-4-Carboxy-4-(19-carboxyheptadecanoylamino)butyrylamino]ethoxy}ethoxy)acetylamino]ethoxy}ethoxy)acetyl]-[Glu14,Lys21,His35]-pramlintide] (H-KCNTATCATQRLAEFLVHSSK([AEEA-AEEA-γGlu-C20 diacid])NFGPILPPTNVGSHTY-NH2; disulfide 2-7), the solubility was more than 200 µM under setting [1]; more than 200 µM under setting [2]; more than 200 µM under setting [3]; more than 200 µM under setting [4]; more than 200 µM under setting [5]; 198 µM (≈ 940 µg/mL) under setting [6]. Also, the solubility by setting is: under setting [7], 142 µM (≈ 674 µg/mL); under setting [8], 142 µM (≈ 674 µg/mL); under setting [9], 169 µM (≈ 802 µg/mL); under setting [10], more than 200 µM.

Turning to `CC[C@H](C)[C@H](NC(=O)[C@H](CCCCNC(=O)COCCOCCNC(=O)COCCOCCNC(=O)CC[C@H](NC(=O)CCCCCCCCCCCCCCCCCCC(=O)O)C(=O)O)NC(=O)CNC(=O)[C@H](Cc1ccccc1)NC(=O)[C@H](CC(N)=O)NC(=O)[C@H](CC(N)=O)NC(=O)[C@H](CO)NC(=O)[C@H](CO)NC(=O)[C@H](Cc1c[nH]cn1)NC(=O)[C@H](Cc1c[nH]cn1)NC(=O)[C@H](CC(C)C)NC(=O)[C@H](Cc1ccccc1)NC(=O)[C@H](CC(N)=O)NC(=O)[C@H](C)NC(=O)[C@H](CC(C)C)NC(=O)[C@H](CCCNC(=N)N)NC(=O)[C@H](CCC(N)=O)NC(=O)[C@@H](NC(=O)[C@H](C)NC(=O)[C@@H]1CSSC[C@H](NC(=O)[C@@H](N)CCCCN)C(=O)N[C@@H](CC(N)=O)C(=O)N[C@@H]([C@@H](C)O)C(=O)N[C@@H](C)C(=O)N[C@@H]([C@@H](C)O)C(=O)N1)[C@@H](C)O)C(=O)N[C@@H](CC(C)C)C(=O)N[C@@H](CO)C(=O)N[C@@H](CO)C(=O)N[C@H](C(=O)N[C@@H](CC(N)=O)C(=O)N[C@H](C(=O)NCC(=O)N[C@@H](CO)C(=O)N[C@@H](Cc1c[nH]cn1)C(=O)N[C@H](C(=O)N[C@@H](Cc1ccc(O)cc1)C(N)=O)[C@@H](C)O)C(C)C)[C@@H](C)O` [Example 140, N-epsilon25-[2-(2-{2-[2-(2-{2-[(S)-4-Carboxy-4-(19-carboxyheptadecanoylamino)butyrylamino]ethoxy}ethoxy)acetylamino]ethoxy}ethoxy)acetyl]-[His17,Lys25,Ser28,Ser29,His35]-pramlintide] (H-KCNTATCATQRLANFLHHSSNNFGK([AEEA-AEEA-γGlu-C20 diacid])ILSSTNVGSHTY-NH2; disulfide 2-7), the solubility reads like this: under setting [1], more than 200 µM; under setting [2], more than 200 µM; under setting [3], more than 200 µM; under setting [4], 104 µM (≈ 496 µg/mL); under setting [5], 2 µM (≈ 9.53 µg/mL); under setting [6], 1 µM (≈ 4.77 µg/mL). For the same compound, the solubility by setting is: under setting [8], 1 µM (≈ 4.77 µg/mL); under setting [9], 1 µM (≈ 4.77 µg/mL).

`CC[C@H](C)[C@H](NC(=O)[C@@H]1CCCN1C(=O)CNC(=O)[C@H](Cc1ccccc1)NC(=O)[C@H](CCC(N)=O)NC(=O)[C@H](CCC(N)=O)NC(=O)[C@H](CO)NC(=O)[C@H](CO)NC(=O)[C@H](Cc1c[nH]cn1)NC(=O)[C@H](CCCNC(=N)N)NC(=O)[C@H](CC(C)C)NC(=O)[C@H](Cc1ccccc1)NC(=O)[C@H](CCC(=O)O)NC(=O)[C@H](C)NC(=O)[C@H](CC(C)C)NC(=O)[C@H](CCCNC(=N)N)NC(=O)[C@H](CCC(N)=O)NC(=O)[C@@H](NC(=O)[C@H](C)NC(=O)[C@@H]1CSSC[C@H](NC(=O)[C@H](CCCNC(=N)N)NC(=O)[C@H](CCC(=O)O)NC(=O)[C@H](CCC(=O)O)NC(=O)CC[C@H](NC(=O)CCCCCCCCCCCCCCCCCCC(=O)O)C(=O)O)C(=O)N[C@@H](CC(N)=O)C(=O)N[C@@H]([C@@H](C)O)C(=O)N[C@@H](C)C(=O)N[C@@H]([C@@H](C)O)C(=O)N1)[C@@H](C)O)C(=O)N[C@@H](CC(C)C)C(=O)N1CCC[C@H]1C(=O)N1CCC[C@H]1C(=O)N[C@H](C(=O)N[C@@H](CCC(N)=O)C(=O)N[C@H](C(=O)NCC(=O)N[C@@H](CO)C(=O)N[C@@H](CCC(N)=O)C(=O)N[C@H](C(=O)N1CCC[C@H]1C(N)=O)[C@@H](C)O)C(C)C)[C@@H](C)O` [Example 160, N-alpha-[(S)-4-Carboxy-4-(19-carboxynonadecanoylamino)butyryl]-Glu-Glu-[Arg1,Glu14,Arg17,Gln21,Gln22,Gln31,Gln35,Pro37]-pramlintide] ({C20 diacid-γGlu}-EERCNTATCATQRLAEFLRHSSQQFGPILPPTQVGSQTP-NH2; disulfide 4-9): the solubility under setting [1] is more than 200 µM; the solubility under setting [2] was more than 200 µM; the solubility under setting [3] is more than 200 µM; the solubility under setting [4] was more than 200 µM; the solubility under setting [5] was more than 200 µM; the solubility under setting [6] is more than 200 µM. The solubility reads like this: under setting [7], more than 200 µM; under setting [8], more than 200 µM; under setting [9], more than 200 µM; under setting [10], more than 200 µM.

Source of the values: US8722849B2, “Polypeptides” (Novo Nordisk A/S, priority 2011, dated 2014).
